“Also recorded” adds a separate entry of the source.
Tests used:
[1] = test system: human red blood cells (hRBCs); experiment: hemolytic assay; type: cell-based; details: for Hemolytic activity, percentage values: mean ± SD
Experimental: The hemolytic activity of some selected compounds was evaluated as the amount of hemoglobin released by the disruption of human red blood cells (hRBCs). For the experiments, fresh hRBCs, obtained from peripheral blood of anonymous blood donors available for research purposes, were collected by centrifugation at 1500 g for 10 min, washed 3 times with PBS, and resuspended to a final concentration of 4% w/v hRBCs in PBS. Then, 100 µL of hRBCs suspension and an equal volume of the 2-fold dilutions of the […] were mixed in a 96-well plate and incubated for 1 h at 37 °C. […] Untreated hRBCs (incubated with PBS) and hRBCs incubated with 1% Triton X-100 were employed as negative and positive controls, respectively. The hemolysis percentage was calculated as [OD405nm (sample) − OD405nm (negative control)]/[OD405nm (positive control) − OD405nm (negative control)] × 100. Minimal hemolytic concentrations (MHCs) were defined as the compound concentrations causing 10% hemolysis.

S. aureus ATCC 25923 = experiment: broth microdilution antimicrobial activity, S. aureus reference strain; type: cell-based, Staphylococcus aureus
Experimental: (§1) Reference bacterial strains of Staphylococcus aureus (ATCC 25923), Escherichia coli (ATCC 25922), and Candida albicans (ATCC 10231) were used in this study as Gram-positive, Gram-negative, and fungal models, respectively. These reference strains were purchased from the American Type Culture Collection (ATCC, Manassas, VA, USA); bacterial cultures were routinely grown at 37 °C on 5% blood agar plate, while fungal cultures on Sabouraud Dextrose Agar (Biolife Italiana S.r.l., Milan, Italy).
(§2) The dry powder of the isatin derivatives was resuspended in dimethylsulfoxide (DMSO) at 20 mM and used as stock solutions. For biological investigations, compounds were used in the range 100–0.78 µM, and the solvent in the corresponding percentage range.
(§3) The antimicrobial activity of the compounds was assessed by a well-established broth microdilution procedure in microtiter plates and in compliance with the Clinical and laboratory Standard Institute (CLSI) guidelines (Clinical and Laboratory Standards Institute, Wayne, PA, USA). In short, microbial inocula were prepared at 0.5 McFarland in PBS and, subsequently, bacterial suspensions were diluted 1:200 in Mueller–Hinton broth (Sigma-Aldrich, St. Louis, MO, USA), while fungal inoculum was diluted 1:20 in RPMI-1640 medium (Gibco®, ThermoFisher Scientific Inc., Waltham, MA, USA), containing 2% glucose and 0.3% levo-glutamine buffered to pH 7.0 with 0.165 M 3-(N-morpholino)propanesulfonic acid (MOPS). A total of 100 µL of these microbial suspensions were introduced in a 96-well microplate and incubated with 100 µL of the compounds, two-fold serially diluted in the range of 100–0.19 µM. Positive controls (microbial suspensions in regular media), negative controls (only compounds), and solvent controls (microbial suspensions incubated with DMSO dilutions) were included in the tests. The plate was incubated at 37 °C for 24 h, and subsequently, the optical density at 630 nm (OD630nm) was spectrophotometrically measured. Each experiment was carried out with three technical replicates (i.e., three wells per sample) and repeated at least two times for statistical power. […] IC50 values, corresponding to the concentration of the compound giving rise to an inhibition of growth of 50%, were obtained by interpolation on dose–response curves generated by plotting the percentages of growth inhibition, relative to the positive control (set to 100% of growth), as a function of the tested concentrations (on a logarithm scale). Statistical analysis was carried out using GraphPad Prism version 9.4.1 for Windows (GraphPad Software, San Diego, CA, USA, www.graphpad.com).

[2] = cell viability and proliferation assay (WST8/CCK-8); type: cell-based; details: African green monkey, Vero cells (ATCC CCL-81); Vero cells; mean [95% confidence interval]
Experimental: (§4) Vero cell line (ATCC CCL-81) was selected as the model system to assess the effect of the isatin hybrids on normal epithelial cells, and a previously established protocol was used with minor modifications. Briefly, cells were cultured in RPMI-1640 medium supplemented with 10% fetal bovine serum (FBS) (Carlo Erba Reagents, Milan, Italy), 100 U/mL penicillin, and 100 µg/mL streptomycin at 37 °C with 5% CO2. For experiments, cells were seeded into 96-well plates at 10^4 cells/well, and incubated at 37 °C for 24 h. Following washes with PBS, the cell monolayer was incubated with 100 µL of medium containing the 2-fold serial dilutions of the compounds. Both untreated cells and cells incubated with medium containing solvent dilutions were included in each experiment as controls. The cell viability was assessed by a WST8-based assay according to the manufacturer’s instructions (CCK-8, Cell Counting Kit-8, Dojindo Molecular Technologies, Rockville, MD, USA). After 48 h of incubation, culture medium was removed from each well, the monolayer was washed with PBS, and 100 µL of fresh medium containing 10 µL of CCK-8 solution were added. After 2 h at 37 °C, the OD450nm was read, and data were expressed as the percentage of the cell viability relative to the untreated controls. The CC50 was obtained from the corresponding dose–response curves generated, as previously reported for IC50 values.

[3] = test system: Vero cell line (ATCC CCL-81); experiment: as above; type: cell-based; details: 100 μM, viability relative to untreated controls, mean ± SD
Experimental: as §4

S. aureus MRSA 2 = experiment: dose-response against clinical isolate MRSA 2; type: cell-based; details: Staphylococcus aureus, mean [95% confidence interval]
Experimental: (§5) The antimicrobial activity of the compounds was assessed by a well-established broth microdilution procedure in microtiter plates and in compliance with the Clinical and laboratory Standard Institute (CLSI) guidelines (Clinical and Laboratory Standards Institute, Wayne, PA, USA). In short, microbial inocula were prepared at 0.5 McFarland in PBS and, subsequently, bacterial suspensions were diluted 1:200 in Mueller–Hinton broth (Sigma-Aldrich, St. Louis, MO, USA), while fungal inoculum was diluted 1:20 in RPMI-1640 medium (Gibco®, ThermoFisher Scientific Inc., Waltham, MA, USA), containing 2% glucose and 0.3% levo-glutamine buffered to pH 7.0 with 0.165 M 3-(N-morpholino)propanesulfonic acid (MOPS). A total of 100 µL of these microbial suspensions were introduced in a 96-well microplate and incubated with 100 µL of the compounds, two-fold serially diluted in the range of 100–0.19 µM. Positive controls (microbial suspensions in regular media), negative controls (only compounds), and solvent controls (microbial suspensions incubated with DMSO dilutions) were included in the tests. The plate was incubated at 37 °C for 24 h, and subsequently, the optical density at 630 nm (OD630nm) was spectrophotometrically measured. Each experiment was carried out with three technical replicates (i.e., three wells per sample) and repeated at least two times for statistical power. […]

S. aureus MRSA 5 = experiment: dose-response against clinical isolate MRSA 5; type: cell-based; details: Staphylococcus aureus, mean [95% confidence interval]
Experimental: as §5

S. aureus MRSA 4 = experiment: dose-response against clinical isolate MRSA 4; type: cell-based; details: Staphylococcus aureus, mean [95% confidence interval]
Experimental: as §5

C. albicans ATCC 10231 = experiment: broth microdilution antimicrobial activity, C. albicans reference strain; type: cell-based, Candida albicans; details: 100 μM, growth relative to positive control, mean ± SD
Experimental: as §1, §2, §3

S. aureus MRSA 1 = experiment: dose-response against clinical isolate MRSA 1; type: cell-based; details: Staphylococcus aureus, mean [95% confidence interval]
Experimental: as §5

- IC50 (S. aureus ATCC 25923; Staphylococcus aureus, ATCC25923, S. aureus ATCC 25923, mean [95% confidence interval]): 13.8 µM
- IC50 (S. aureus MRSA 2): 27.5 µM
- IC50 (S. aureus MRSA 5): 21.2 µM
- IC50 (S. aureus MRSA 4): 11.3 µM
- IC50 (S. aureus MRSA 1): 21.4 µM
Compound: O=C1Nc2cc(OC(F)(F)F)ccc2C1(c1c(Cl)nc2sccn12)c1c(Cl)nc2sccn12 [Compound 11, 3,3-bis(6-Chloroimidazo[2,1-b]thiazol-5-yl)-6-(trifluoromethoxy)indolin-2-one]
- Hemolytic activity, percentage values ([1]; 1.56 µM): 0.9 ± 1.8%
- Hemolytic activity, percentage values ([1]; 3.125 µM): 1.1 ± 1.2%
- Hemolytic activity, percentage values ([1]; 6.25 µM): 2.3 ± 0.2%
- Hemolytic activity, percentage values ([1]; 12.5 µM): 2.2 ± 0.5%
- Hemolytic activity, percentage values ([1]; 25 µM): 1.8 ± 1.5%
- Hemolytic activity, percentage values ([1]; 50 µM): 0.7 ± 1.5%
- Hemolytic activity, percentage values ([1]; 100 µM): 1.1 ± 0.4%
- hemolytic activity ([1]; range 100–1.56 µM): did not show an appreciable hemolytic activity; also recorded: no hemolytic property
- SI (selectivity index, CC50/IC50) (S. aureus ATCC 25923; CC50 Vero / IC50 S. aureus): 4.6
- CC50 at 48 h [2]: 63.3 µM
- Cell proliferation, Vero [3]: most toxic
- viability at 100 µM ([3]; Chlorocebus sabaeus, Vero, 48 h, read-out: Cell proliferation, Vero): 21.1 ± 3.3%
- Microbial growth, C. albicans (C. albicans ATCC 10231): did not inhibit the growth
- activity at 100 µM (C. albicans ATCC 10231; Candida albicans, ATCC10231, read-out: Microbial growth, C. albicans): 108 ± 8.5%
